Laboratory results taken from US9505762B2, “Purine derivatives as CB2 receptor agonists” (Hoffmann-La Roche Inc., priority 2013, dated 2016).

Assays:
[1] = molecular target: human CB1 receptors (Homo sapiens (Human), UniProt P21554); test: functional cAMP assay, CB1; format: cell-based; details: CHO cells expressing human CB1
Procedure: (§1) The growth medium was exchanged with Krebs Ringer Bicarbonate buffer with 1 mM IBMX and incubated at 30° C. for 30 min. Compounds were added to a final assay volume of 100 μl and incubated for 30 min at 30° C. Using the cAMP-Nano-TRF detection kit the assay (Roche Diagnostics) was stopped by the addition of 50 μl lysis reagent (Tris, NaCl, 1.5% Triton X100, 2.5% NP40, 10% NaN3) and 50 μl detection solutions (20 μM mAb Alexa700-cAMP 1:1, and 48 μM Ruthenium-2-AHA-cAMP) and shaken for 2 h at room temperature. The time-resolved energy transfer is measured by a TRF reader (Evotec Technologies GmbH), equipped with a ND:YAG laser as excitation source. The plate is measured twice with the excitation at 355 nm and at the emission with a delay of 100 ns and a gate of 100 ns, total exposure time 10 s at 730 (bandwidth 30 nm) or 645 nm (bandwidth 75 nm), respectively.
(§2) EC50 values were determined using Activity Base analysis (ID Business Solution, Limited).

[2] = molecular target: human CB2 receptors (Homo sapiens (Human), UniProt P34972); test: functional cAMP assay, CB2; format: cell-based; details: CHO cells expressing human CB2
Procedure: as §1, §2

Sequence of human CB1 receptors (P21554 whole entry): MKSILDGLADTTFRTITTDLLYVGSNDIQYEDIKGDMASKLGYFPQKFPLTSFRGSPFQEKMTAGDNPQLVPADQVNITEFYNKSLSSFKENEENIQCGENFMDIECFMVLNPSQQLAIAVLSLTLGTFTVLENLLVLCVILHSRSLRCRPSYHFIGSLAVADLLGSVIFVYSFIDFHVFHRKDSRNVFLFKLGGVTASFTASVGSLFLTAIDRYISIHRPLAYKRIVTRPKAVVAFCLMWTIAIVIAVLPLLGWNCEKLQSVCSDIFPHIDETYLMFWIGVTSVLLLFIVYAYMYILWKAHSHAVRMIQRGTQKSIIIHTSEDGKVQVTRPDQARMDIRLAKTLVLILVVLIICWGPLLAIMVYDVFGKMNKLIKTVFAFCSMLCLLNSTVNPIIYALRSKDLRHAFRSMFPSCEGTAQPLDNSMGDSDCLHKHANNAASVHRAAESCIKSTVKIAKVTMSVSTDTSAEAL
Sequence of human CB2 receptors (P34972 whole entry): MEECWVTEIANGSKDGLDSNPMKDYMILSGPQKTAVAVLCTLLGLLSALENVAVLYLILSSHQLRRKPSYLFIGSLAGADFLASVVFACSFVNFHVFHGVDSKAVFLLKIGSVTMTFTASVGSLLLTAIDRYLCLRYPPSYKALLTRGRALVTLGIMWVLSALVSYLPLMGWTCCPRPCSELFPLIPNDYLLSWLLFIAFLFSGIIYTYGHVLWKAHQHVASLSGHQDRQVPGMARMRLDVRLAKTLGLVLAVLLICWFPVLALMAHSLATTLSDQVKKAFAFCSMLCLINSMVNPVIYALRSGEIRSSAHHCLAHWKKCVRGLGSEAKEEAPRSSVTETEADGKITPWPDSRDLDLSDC

| SMILES | EC50 [1] | EC50 [2] |
| --- | --- | --- |
| CC(=O)N[C@H]1CCN(c2nc(C(C)(C)C)nc3c2ncn3Cc2ccccc2S(C)(=O)=O)C1 [Example 52, N—[(S)-1-[2-tert-butyl-9-[(2-methylsulfonylphenyl)methyl]purin-6-yl]pyrrolidin-3-yl]acetamide] | > 10 µM | 0.229 µM |
| CC(=O)N[C@H]1CCN(c2nc(C(C)(C)C)nc3c2ncn3Cc2cccnc2Cl)C1 [Example 53, N—[(S)-1-[2-tert-butyl-9-[(2-chloropyridin-3-yl)methyl]purin-6-yl]pyrrolidin-3-yl]acetamide] | > 10 µM | 0.175 µM |
| CC(=O)N[C@H]1CCN(c2nc(C(C)(C)C)nc3c2ncn3Cc2ncccc2Cl)C1 [Example 54, N—[(S)-1-[2-tert-butyl-9-[(3-chloropyridin-2-yl)methyl]purin-6-yl]pyrrolidin-3-yl]acetamide] | > 10 µM | 0.388 µM |
| CC(C)(C)c1nc(N2CCC3(COC3)C2)c2ncn(Cc3ccccc3Cl)c2n1 [Example 56, 7-[2-tert-butyl-9-[(2-chlorophenyl)methyl]purin-6-yl]-2-oxa-7-azaspiro[3.4]octane] | > 10 µM | 0.0558 µM |
| CC(C)(C)c1nc(N2CCC3(COC3)C2)c2ncn(Cc3cccc(Cl)c3)c2n1 [Example 57, 7-[2-tert-butyl-9-[(3-chlorophenyl)methyl]purin-6-yl]-2-oxa-7-azaspiro[3.4]octane] | > 10 µM | 0.467 µM |
| CC(C)(C)c1nc(N2CCC3(COC3)C2)c2ncn(Cc3ccc(Cl)cc3)c2n1 [Example 58, 7-[2-tert-butyl-9-[(4-chlorophenyl)methyl]purin-6-yl]-2-oxa-7-azaspiro[3.4]octane] | > 10 µM | 0.506 µM |
| CC(C)(C)c1nc(N2CCC3(COC3)C2)c2ncn(Cc3ccccc3C(F)(F)F)c2n1 [Example 59, 7-[2-tert-butyl-9-[[2-(trifluoromethyl)phenyl]methyl]purin-6-yl]-2-oxa-7-azaspiro[3.4]octane] | > 10 µM | 0.0167 µM |
| CC(C)(C)c1nc(N2CCC3(COC3)C2)c2ncn(Cc3ccccc3S(C)(=O)=O)c2n1 [Example 60, 7-[2-tert-butyl-9-[(2-methylsulfonylphenyl)methyl]purin-6-yl]-2-oxa-7-azaspiro[3.4]octane] | > 10 µM | 0.175 µM |
| CC(C)(C)c1nc(N2CCC3(COC3)C2)c2ncn(Cc3cccnc3Cl)c2n1 [Example 61, 7-[2-tert-butyl-9-[(2-chloropyridin-3-yl)methyl]purin-6-yl]-2-oxa-7-azaspiro[3.4]octane] | > 10 µM | 0.0296 µM |
| Cc1nonc1Cn1cnc2c(N3CCC4(COC4)C3)nc(C(C)(C)C)nc21 [Example 62, 7-[2-tert-butyl-9-[(4-methyl-1,2,5-oxadiazol-3-yl)methyl]purin-6-yl]-2-oxa-7-azaspiro[3.4]octane] | > 10 µM | 0.146 µM |
| COCCn1cnc2c(N3CCC4(COC4)C3)nc(C(C)(C)C)nc21 [Example 63, 7-[2-tert-butyl-9-(2-methoxyethyl)purin-6-yl]-2-oxa-7-azaspiro[3.4]octane] | > 10 µM | 0.661 µM |
| CC1(O)CCN(c2nc(C(C)(C)C)nc3c2ncn3Cc2ccccc2Cl)C1 (stereo not drawn) [Example 64, 1-[2-tert-butyl-9-[(2-chlorophenyl)methyl]purin-6-yl]-3-methylpyrrolidin-3-ol] | > 10 µM | 0.0134 µM |
| CC1(O)CCN(c2nc(C(C)(C)C)nc3c2ncn3Cc2cccc(Cl)c2)C1 (stereo not drawn) [Example 65, 1-[2-tert-butyl-9-[(3-chlorophenyl)methyl]purin-6-yl]-3-methylpyrrolidin-3-ol] | > 10 µM | 0.0916 µM |
| CC1(O)CCN(c2nc(C(C)(C)C)nc3c2ncn3Cc2ccccc2C(F)(F)F)C1 (stereo not drawn) [Example 67, 1-[2-tert-butyl-9-[[2-(trifluoromethyl)phenyl]methyl]purin-6-yl]-3-methylpyrrolidin-3-ol] | > 10 µM | 0.009 µM |
| CC1(O)CCN(c2nc(C(C)(C)C)nc3c2ncn3Cc2cccnc2Cl)C1 (stereo not drawn) [Example 68, 1-[2-tert-butyl-9-[(2-chloropyridin-3-yl)methyl]purin-6-yl]-3-methylpyrrolidin-3-ol] | > 10 µM | 0.0248 µM |
| CC1(O)CCN(c2nc(C(C)(C)C)nc3c2ncn3Cc2ncccc2Cl)C1 (stereo not drawn) [Example 69, 1-[2-tert-butyl-9-[(3-chloropyridin-2-yl)methyl]purin-6-yl]-3-methylpyrrolidin-3-ol] | > 10 µM | 0.0468 µM |
| CC1(O)CCN(c2nc(C(C)(C)C)nc3c2ncn3Cc2ccccc2S(C)(=O)=O)C1 (stereo not drawn) [Example 74, 1-[2-tert-butyl-9-[(2-methylsulfonylphenyl)methyl]purin-6-yl]-3-methylpyrrolidin-3-ol] | > 10 µM | 0.0884 µM |

| SMILES | EC50 [1] | EC50 [2] |
| --- | --- | --- |
| CC(=O)N[C@H]1CCN(c2nc(C(C)(C)C)nc3c2ncn3Cc2c[nH]nc2C(F)(F)F)C1 [Example 75, N—[(S)-1-[2-tert-butyl-9-[[3-(trifluoromethyl)-1H-pyrazol-4-yl]methyl]purin-6-yl]pyrrolidin-3-yl]acetamide] | > 10 µM | 0.28 µM |
| CC(C)(C)c1nc(N2CCC3(COC3)C2)c2ncn(Cc3c[nH]nc3C(F)(F)F)c2n1 [Example 76, 7-[2-tert-butyl-9-[[3-(trifluoromethyl)-1H-pyrazol-4-yl]methyl]purin-6-yl]-2-oxa-7-azaspiro[3.4]octane] | > 10 µM | 0.153 µM |
| CC(=O)N[C@H]1CCN(c2nc(C(C)(C)C)nc3c2ncn3Cc2n[nH]cc2C(F)(F)F)C1 [Example 77, N—[(S)-1-[2-tert-butyl-9-[[4-(trifluoromethyl)-1H-pyrazol-3-yl]methyl]purin-6-yl]pyrrolidin-3-yl]acetamide] | > 10 µM | 0.205 µM |
| CC(C)(C)c1nc(N2CCC3(COC3)C2)c2ncn(Cc3n[nH]cc3C(F)(F)F)c2n1 [Example 78, 7-[2-tert-butyl-9-[[4-(trifluoromethyl)-1H-pyrazol-3-yl]methyl]purin-6-yl]-2-oxa-7-azaspiro[3.4]octane] | > 10 µM | 0.0175 µM |
| Cc1nnc(Cn2cnc3c(N4CC(F)(F)C(F)(F)C4)nc(C(C)(C)C)nc32)o1 [Example 79, 2-[[2-tert-butyl-6-(3,3,4,4-tetrafluoropyrrolidin-1-yl)purin-9-yl]methyl]-5-methyl-1,3,4-oxadiazole] | > 10 µM | 0.116 µM |
| Cc1noc(Cn2cnc3c(N4CC(F)(F)C(F)(F)C4)nc(C(C)(C)C)nc32)n1 [Example 80, 5-[[2-tert-butyl-6-(3,3,4,4-tetrafluoropyrrolidin-1-yl)purin-9-yl]methyl]-3-methyl-1,2,4-oxadiazole] | > 10 µM | 0.179 µM |
| COCCn1cnc2c(N3CC(F)(F)C(F)(F)C3)nc(C(C)(C)C)nc21 [Example 83, 2-tert-butyl-9-(2-methoxyethyl)-6-(3,3,4,4-tetrafluoropyrrolidin-1-yl)purine] | > 10 µM | 0.0646 µM |
| CC1(O)CCN(c2nc(C(C)(C)C)nc3c2ncn3Cc2c[nH]nc2C(F)(F)F)C1 (stereo not drawn) [Example 84, 1-[2-tert-butyl-9-[[3-(trifluoromethyl)-1H-pyrazol-4-yl]methyl]purin-6-yl]-3-methylpyrrolidin-3-ol] | > 10 µM | 0.0793 µM |
| CC1(O)CCN(c2nc(C(C)(C)C)nc3c2ncn3Cc2n[nH]cc2C(F)(F)F)C1 (stereo not drawn) [Example 85, 1-[2-tert-butyl-9-[[4-(trifluoromethyl)-1H-pyrazol-3-yl]methyl]purin-6-yl]-3-methylpyrrolidin-3-ol] | > 10 µM | 0.0221 µM |
| CC(C)(C)c1nc(N2CC[C@H](O)C2)c2ncn(Cc3ccccc3C(F)(F)F)c2n1 [Example 86, (3S)-1-[2-tert-butyl-9-[[2-(trifluoromethyl)phenyl]methyl]purin-6-yl]pyrrolidin-3-ol] | > 10 µM | 0.0011 µM |
| CC(C)(C)c1nc(N2CC[C@H](O)C2)c2ncn(Cc3cccc(Cl)c3)c2n1 [Example 87, (3S)-1-[2-tert-butyl-9-[(3-chlorophenyl)methyl]purin-6-yl]pyrrolidin-3-ol] | > 10 µM | 0.0021 µM |
| CC(C)(C)c1nc(N2CCC3(COC3)C2)c2ncn(CCC(F)(F)F)c2n1 [Example 89, 7-[2-tert-butyl-9-(3,3,3-trifluoropropyl)purin-6-yl]-2-oxa-7-azaspiro[3.4]octane] | > 10 µM | 0.573 µM |
| CC(C)(C)c1nc(N2CC[C@H](O)C2)c2ncn(Cc3ccccc3S(C)(=O)=O)c2n1 [Example 90, (3S)-1-[2-tert-butyl-9-[(2-methylsulfonylphenyl)methyl]purin-6-yl]pyrrolidin-3-ol] | > 10 µM | 0.0079 µM |
| CC(C)(C)c1nc(N2CC[C@H](O)C2)c2ncn(Cc3cccnc3Cl)c2n1 [Example 91, (3S)-1-[2-tert-butyl-9-[(2-chloropyridin-3-yl)methyl]purin-6-yl]pyrrolidin-3-ol] | > 10 µM | 0.0017 µM |
| CC(C)(C)c1nc(N2CC[C@H](O)C2)c2ncn(Cc3ncccc3Cl)c2n1 [Example 92, (3S)-1-[2-tert-butyl-9-[(3-chloropyridin-2-yl)methyl]purin-6-yl]pyrrolidin-3-ol] | > 10 µM | 0.0084 µM |
| CC(C)(C)c1nc(N2CC(F)(F)C(F)(F)C2)c2ncn(CCC(F)(F)F)c2n1 [Example 93, 2-tert-butyl-6-(3,3,4,4-tetrafluoropyrrolidin-1-yl)-9-(3,3,3-trifluoropropyl)purine] | > 10 µM | 0.0898 µM |
